Target: E3 ubiquitin-protein ligase Mdm2 (Homo sapiens, UniProt Q00987)
Assay: Inhibition of GST-tagged MDM2 binding to p53 by ELISA

Sequence of E3 ubiquitin-protein ligase Mdm2 (Q00987 whole entry): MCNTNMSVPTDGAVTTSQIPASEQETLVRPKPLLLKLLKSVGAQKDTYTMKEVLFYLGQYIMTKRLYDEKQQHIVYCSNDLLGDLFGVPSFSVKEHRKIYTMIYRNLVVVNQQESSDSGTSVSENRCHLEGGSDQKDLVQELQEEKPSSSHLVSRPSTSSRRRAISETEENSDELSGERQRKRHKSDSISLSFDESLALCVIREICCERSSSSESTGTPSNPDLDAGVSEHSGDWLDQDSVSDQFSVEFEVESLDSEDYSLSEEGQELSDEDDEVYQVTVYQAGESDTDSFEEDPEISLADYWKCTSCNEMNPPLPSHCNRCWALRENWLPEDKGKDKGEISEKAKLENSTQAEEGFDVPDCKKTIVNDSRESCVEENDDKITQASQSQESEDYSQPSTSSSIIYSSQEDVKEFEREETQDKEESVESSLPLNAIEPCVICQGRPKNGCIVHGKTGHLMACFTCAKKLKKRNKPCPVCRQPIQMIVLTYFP

## CC1=C(C(=O)N2CCNC(=O)C2)SC2=N[C@@H](c3ccc(Cl)cc3)[C@@H](c3ccc(Cl)cc3)N21 (racemic)
  IC50: 2.7 µM

## COCC1=C(C(=O)N2CCNC(=O)C2)SC2=N[C@@H](c3ccc(Cl)cc3)[C@@H](c3ccc(Cl)cc3)N21 (racemic)
  IC50: 7.1 µM

## CC(C)C1=C(C(=O)N2CCNC(=O)C2)SC2=NC(c3ccc(Cl)cc3)C(c3ccc(Cl)cc3)N21 (single isomer, unassigned; (-))
  IC50: 11.9 µM

## CC(C)C1=C(C(=O)N2CCNC(=O)C2)SC2=NC(c3ccc(Cl)cc3)C(c3ccc(Cl)cc3)N21 (single isomer, unassigned; (+))
  IC50: 0.16 µM

## CC(C)C1=C(C(=O)N2C[C@@H](C)N[C@@H](C)C2)SC2=N[C@@H](c3ccc(Cl)cc3)[C@@H](c3ccc(Cl)cc3)N21 (racemic)
  IC50: 0.14 µM

## O=C1CN(C(=O)C2=C(C3CC3)N3C(=N[C@@H](c4ccc(Cl)cc4)[C@H]3c3ccc(Cl)cc3)S2)CCN1 (racemic)
  IC50: 9.5 µM

## CC(C)(C)C1=C(C(=O)N2CCNC(=O)C2)SC2=N[C@@H](c3ccc(Cl)cc3)[C@@H](c3ccc(Cl)cc3)N21 (racemic)
  IC50: 3 µM

## CCCC1=C(C(=O)N2CCNC(=O)C2)SC2=N[C@@H](c3ccc(Cl)cc3)[C@@H](c3ccc(Cl)cc3)N21 (racemic)
  IC50: 3.1 µM

## CC(C)C1=C(C(=O)N2CCN(CCO)CC2)SC2=N[C@@H](c3ccc(Cl)cc3)[C@@H](c3ccc(Cl)cc3)N21 (racemic)
  IC50: 1.8 µM

## CC(C)C1=C(C(=O)N2CCC(C(=O)N(C)C)CC2)SC2=N[C@@H](c3ccc(Cl)cc3)[C@@H](c3ccc(Cl)cc3)N21 (racemic)
  IC50: 4.4 µM

## CC(=O)N1CCN(C(=O)C2=C(C(C)C)N3C(=N[C@@H](c4ccc(Cl)cc4)[C@H]3c3ccc(Cl)cc3)S2)CC1 (racemic)
  IC50: 0.84 µM

## CC(C)C1=C(C(=O)N2CCN(C)CC2)SC2=N[C@@H](c3ccc(Cl)cc3)[C@@H](c3ccc(Cl)cc3)N21 (racemic)
  IC50: 1.2 µM

## CCC1=C(C(=O)N2CCNC(=O)C2)SC2=N[C@@H](c3ccc(Cl)cc3)[C@@H](c3ccc(Cl)cc3)N21 (racemic)
  IC50: 1.8 µM

## CC(C)C1=C(C(=O)N2CCNC(=O)C2)SC2=N[C@@H](c3ccc(Cl)cc3)[C@@H](c3ccc(Cl)cc3)N21 (racemic)
  IC50: 0.26 µM

## CC(C)C1=C(C(=O)N2CCOCC2)SC2=N[C@@H](c3ccc(Cl)cc3)[C@@H](c3ccc(Cl)cc3)N21 (racemic)
  IC50: 0.34 µM

## CC(C)C1=C(C(=O)N2CCNC(=O)CC2)SC2=N[C@@H](c3ccc(Cl)cc3)[C@@H](c3ccc(Cl)cc3)N21 (racemic)
  IC50: 1.1 µM

— ChEMBL document CHEMBL2150912, “Discovery of novel dihydroimidazothiazole derivatives as p53-MDM2 protein-protein interaction inhibitors: synthesis, biological evaluation and structure-activity relationships” (Bioorg Med Chem Lett, 2012)
